In paper PMC10112521, “High-throughput AR dimerization assay identifies androgen disrupting chemicals and metabolites” (Frontiers in Toxicology, 2023):
Like-named read-outs stand apart in the source and are kept apart here.

Tests used:
human AR [1] = biological target: T1, human AR (Homo sapiens, UniProt P10275); experiment: AR2 assay, antagonist mode: disruption of R1881 (10 nM)-induced AR homodimerization in HepG2-AR2 cells; type: cell-based
T1 sequence (P10275 1-920) 1: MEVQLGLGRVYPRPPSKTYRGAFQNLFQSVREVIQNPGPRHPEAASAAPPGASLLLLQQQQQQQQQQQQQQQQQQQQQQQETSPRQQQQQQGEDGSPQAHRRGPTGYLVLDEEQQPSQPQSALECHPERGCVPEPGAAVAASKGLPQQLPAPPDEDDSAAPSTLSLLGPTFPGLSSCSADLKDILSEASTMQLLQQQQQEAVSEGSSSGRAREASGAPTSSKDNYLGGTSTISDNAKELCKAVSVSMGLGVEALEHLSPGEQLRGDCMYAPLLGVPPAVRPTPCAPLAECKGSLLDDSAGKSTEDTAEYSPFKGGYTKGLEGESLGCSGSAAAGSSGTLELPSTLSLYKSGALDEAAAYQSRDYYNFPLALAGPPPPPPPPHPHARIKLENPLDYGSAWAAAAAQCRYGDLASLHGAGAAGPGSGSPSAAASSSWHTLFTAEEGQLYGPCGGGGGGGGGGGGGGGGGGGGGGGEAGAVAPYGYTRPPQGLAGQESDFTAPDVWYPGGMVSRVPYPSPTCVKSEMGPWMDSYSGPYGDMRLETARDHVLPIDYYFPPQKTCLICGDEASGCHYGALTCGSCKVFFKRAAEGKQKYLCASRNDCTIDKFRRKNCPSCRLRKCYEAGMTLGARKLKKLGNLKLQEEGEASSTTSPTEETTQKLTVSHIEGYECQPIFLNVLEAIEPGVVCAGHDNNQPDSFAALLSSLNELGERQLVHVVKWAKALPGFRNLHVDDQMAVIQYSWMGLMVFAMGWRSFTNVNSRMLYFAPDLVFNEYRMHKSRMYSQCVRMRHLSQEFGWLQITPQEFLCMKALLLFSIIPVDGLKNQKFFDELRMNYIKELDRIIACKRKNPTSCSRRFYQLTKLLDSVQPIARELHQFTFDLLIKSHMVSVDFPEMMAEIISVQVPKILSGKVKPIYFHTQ
T1 sequence (P10275 1-920) 2: T1 sequence (P10275 1-920) 1

AR2 cells (HepG2-AR2) [2] = experiment: Alamar Blue (resazurin) post hoc cell viability / cytotoxicity assay in AR2 cells; settings: spid Viability, sheet antagonist_fits; for hill_tp (Hill model top): 0 where win_model is Constant
Method: (§1) For antagonist mode and cytotoxicity data, well-level normalized response (resp) was calculated as: resp=100 * RLU−bval/pval−bval where pval is the median RLU value of the MEC positive control wells (minimum four wells).

human AR [3] = biological target: T1, human AR; experiment: AR2 assay, agonist mode: ligand-dependent AR homodimerization (NanoBiT luciferase complementation) in stable HepG2-AR2 cells; type: cell-based;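 as to hill tp: Log2 fold change of luminescence over DMSO vehicle wells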;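 as to max med: Log2 fold change of luminescence over DMSO vehicle wells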
human AR [4] = biological target: T1, human AR; experiment: cell-based; parameters: species or system AR2 cells (HepG2-AR2); NanoLuc complementation AR homodimerization, antagonist mode, loss of agonist-induced luminescence, AC50 by Hill fit; settings: hill_ga
AR2 cells (HepG2-AR2) [5] = tested on: AR2 cells (HepG2-AR2)
Method: as §1

AR = tested on: AR; parameters: method as in Kleinstreuer et al., 2017; settings: 2017, cited from earlier work; for Antagonist reference: AR antagonist reference class ref Kleinstreuer et al.; for Agonist reference: AR agonist reference class ref Kleinstreuer et al.
[6] = tested on: full-length human AR and the receptor interacting domain (RID) of SRC1; parameters: method as in U.S. EPA, 2002b; settings: cited from earlier work
[7] = spid AR_antagonist, sheet antagonist_fits
[8] = spid AR_antagonist, sheet antagonist_fits, 0 where win_model is Constant
[9] = sheet agonist_fits, Hill model top (efficacy), 0 given where win_model is Constant
[10] = sheet agonist_fits, maximum median response
[11] = sheet agonist_fits, winning concentration-response model (Constant, Hill, Gain-Loss)
[12] = spid=Bgal, antagonist mode, 10 nM agonist stimulus, 18 h, no CYP expressed
[13] = spid=No_RNA, antagonist mode, 10 nM agonist stimulus, 18 h, no CYP expressed
[14] = spid AR_antagonist, sheet antagonist_fits, Hill fit parameter

Row | SMILES | max_med (maximum median response) (human AR [1]; [7]) | win_model (winning concentration-response model) (human AR [1]; [7]) | hill_gw (Hill model slope) (human AR [1]; [8]) | hill_tp (Hill model top) (human AR [1]; [8]) | max_med (maximum median response) (AR2 cells (HepG2-AR2) [2]) | hill_tp (Hill model top) (AR2 cells (HepG2-AR2) [2]) | hill_tp (human AR [3]; [9]) | max_med (human AR [3]; [10]) | win_model (human AR [3]; [11]) | AC50 (human AR [4]; [12]) [µM] | AC50 (human AR [4]; [13]) [µM] | hill_ga (Hill model log AC50) (AR2 cells (HepG2-AR2) [5]) | other results
1 | CC/C(=C(\c1ccc(O)cc1)c1ccc(OCCN(C)C)cc1)c1ccccc1 [Afimoxifene (4-Hydroxytamoxifen)] | 104.395 | Hill | 3.209 | 105.037 | 99.7378 | 99.9149 | 0 | 0.04316 | Constant | 7.28 | 5.39 |  | 
2 | CCCCOC(=O)c1ccccc1C(=O)OCCCC [Dibutyl phthalate] |  |  |  |  | 27.2383 | 28.3952 |  |  |  |  |  | 1.084 | 
3 | CC(C)(c1ccccc1)c1ccc(O)cc1 [4-Cumylphenol] |  |  |  |  | 99.676 |  |  |  |  |  |  | 1.81 | 
4 | O=c1c(-c2ccc(O)cc2)coc2cc(O)cc(O)c12 [Genistein] |  | Hill | 2.066 |  | 23.3224 | 24.3043 | 0 | 0.108 | Constant | 9.34 | 9.32 |  | hill_tp (Hill model top) (human AR [1]): 100.659; max_med (maximum median response) (human AR [1]): 101.398
5 | CNC(=O)Oc1cccc2c1OC(C)(C)C2 [Carbofuran] | 28.4656 | Hill | 1.516 | 33.2623 | 23.3178 | 15.7111 | 0 | 0.1027 | Constant |  |  |  | AC50 (human AR [4]): 44.2 µM
6 | CC(C)(C)CC(C)(C)c1ccc(O)cc1 [4-(1,1,3,3-Tetramethylbutyl)phenol] |  |  |  |  | 99.7722 | 100.987 |  |  |  |  |  | 1.5 | 
7 | CCOC(=O)c1ccccc1C(=O)OCC [Diethyl phthalate] |  |  |  |  | 22.6345 | 17.9391 |  |  |  |  |  | 0.07147 | 
8 | CC(C)(O)C(=O)Nc1ccc([N+](=O)[O-])c(C(F)(F)F)c1 [Hydroxyflutamide] | 26.302 | Hill | 8 | 19.7734 | 16.5535 | 15.0961 | 5.723 | 5.832 | Hill |  |  |  | activity call in antagonist mode (human AR [1]; 128-chemical evaluation, 18 h, active = maximal median response >3*bmad and AC50 at least 0.5 log units below cytotoxicity AC50): tested inactive; AR2 antagonist (human AR [1]; activity call, antagonist mode, 18 h): 0; Emax (human AR [1]; read-out: antagonist response / maximum efficacy (% inhibition)): > 90%; Antagonist reference (AR): Strong; Antagonist reference (AR; Supplementary Table S1): Strong; activity call in agonist mode (human AR [3]; 128-chemical evaluation, 18 h, active = maximal median response >5*bmad): tested active; hill_gw (human AR [3]; sheet agonist_fits, Hill model gain slope (Hill coefficient), 0 given where win_model is Constant): 0.8082; OT 8 hr ([6]; activity call, 8 h, single protocol detects agonists and antagonists, invitroDBv3.4 ref U.S. EPA, 2002b): 1; OT 16 hr ([6]; activity call, 16 h, single protocol detects agonists and antagonists, invitroDBv3.4 ref U.S. EPA, 2002b): 1
9 | C=C1C[C@@H]2[C@H](CC[C@]3(C)C(=O)CC[C@@H]23)[C@@]2(C)C=CC(=O)C=C12 [Exemestane] |  |  |  |  |  |  |  |  |  |  |  |  | hill_tp (Hill model top) (AR2 cells (HepG2-AR2) [5]): 0; max_med (maximum median response) (AR2 cells (HepG2-AR2) [5]; spid Viability, sheet antagonist_fits): 7.414
10 | O=c1c(-c2ccc(O)cc2)coc2cc(O)ccc12 [Daidzein] | 67.6764 | Hill | 1.585 | 87.2882 | 12.142 | 8.263 | 0 | 0.1579 | Constant | 59.8 | 46.5 |  | Agonist reference (AR; Supplementary Table S1): Inactive
11 | Clc1ccc(C(c2ccc(Cl)cc2)C(Cl)Cl)cc1 [p,p'-DDD] |  |  |  |  |  |  |  |  |  |  |  | 1.74 | hill_tp (Hill model top of curve) (AR2 cells (HepG2-AR2) [5]; human, 18 h): 93.5622; max_med (maximum median response) (AR2 cells (HepG2-AR2) [5]; human, 18 h): 93.2611
12 | C[C@]12C=CC3=C4CCC(=O)C=C4CC[C@H]3[C@@H]1CC[C@@H]2O [17beta-Trenbolone] |  |  |  |  | 21.7453 | 17.3642 |  |  |  |  |  |  | hill_gw (Hill model slope) (human AR [1]): 6.214; hill_tp (Hill model top) (human AR [1]): 20.2687; max_med (maximum median response) (human AR [1]): 20.7317; win_model (winning concentration-response model) (human AR [1]): Gain-Loss; Agonist reference (AR): Strong; Agonist reference (AR; Supplementary Table S1): Strong; AR2 agonist (human AR [3]): 1; activity call in agonist mode (human AR [3]): tested active; hill_gw (human AR [3]): 0.7579; hill_tp (human AR [3]): 6.165; max_med (human AR [3]): 6.198; win_model (human AR [3]): Hill; OT 8 hr [6]: 1; OT 16 hr [6]: 1
13 | COP(=O)(OC)O/C(=C\Cl)c1cc(Cl)c(Cl)cc1Cl [Z-Tetrachlorvinphos] | 94.4561 |  |  |  | 16.5553 |  | 0 | 0.08626 | Constant | 28.8 | 28.9 |  | win_model (winning curve-fit model) (human AR [1]; spid AR_antagonist, sheet antagonist_fits, Constant = no concentration response): Hill; hill_gw (Hill model slope/Hill coefficient) (human AR [1]; [14]): 1.437; hill_tp (Hill model top of curve) (human AR [1]; [14]): 113.966; hill_tp (Hill model top of curve) (AR2 cells (HepG2-AR2) [2]; Hill fit parameter): 16.4592
14 | O=[N+]([O-])c1ccc(O)c([N+](=O)[O-])c1 [2,4-Dinitrophenol] | 41.2653 | Hill | 1.229 | 60.4053 | 17.6561 | 19.403 | 0 | 0.06149 | Constant | 61.4 | 35.8 |  | 
